Data as given in patent EP0860438B1, “Fluorine-containing diphenyl acrylamide antimicrobial agents” (Shenyang Research Institute of Chemical Industry, priority 1997, dated 1998).
Like-named read-outs stand apart in the source and are kept apart here.

Experiments:
cucumber downy mildew [1] = assay: Indoor comparison with currently available antimicrobial agents, therapeutic effect (Example 12); format: in vivo, Pseudoperonospora cubensis; settings: seedling of yellow melon
cucumber downy mildew [2] = assay: Indoor comparison with currently available antimicrobial agents, protective effect (Example 12); format: in vivo, Pseudoperonospora cubensis; settings: seedling of yellow melon
Downy mildew [3] = assay: Indoor comparison with Dimethomorph, test for therapy (Example 11); settings: seedling of yellow melon, 2 - 3 leaf stage
Description: (§1) Test was divided into test for therapy and test for protection. Concentration of two chemicals (Compound 1 and Dimethomorph) was set at 150 and 100 ppm, and each treatment was run three times. A blank control was set separately. Samples were selected from seedling of yellow melon in the 2 - 3 leaf stage. Method of treatment and study was the same as before.

late blight of tomato = format: in vivo; settings: three treatments, examined on June 20, field
cucumber downy mildew [4] = assay: Field protection test against cucumber downy mildew (Example 13); format: in vivo, Pseudoperonospora cubensis; parameters: Disease index: scale not given here
Method: Protective action (field test).
Field protection test against cucumber downy mildew was carried out in the farm at a village near Shenyang City. Concentration of the Compound 1 (20% wettable powder) was set at 200, 400 and 600 ppm. Concentration of Previcur (66.5% hydrate ) which was used as the control, was set at 800, 1000 and 1200 ppm. And, a blank control was set separately also. Each treatment was run 4 times. Samples were taken for examination. […] First examination of protective effect was made on April 22. The second examination of protective effect was made on April 29, and the third examinatnion of protective effect was made on May 5.

[5] = system: cucumber downy mildew (Pseudoperonospora cubensis); assay: Test for inhibition of spore germination in cucumber downy mildew; format: cell-based
cucumber downy mildew [6] = assay: Indoor therapeutic test against cucumber downy mildew (Example 10); settings: treated 24 hours after inoculation, examined a week later
Method: (§2) Concentration of test Compound 1 (content was 9% in emulsion oil) was set at 250, 200, 150, 100 and 75 ppm. Dimethomorph (American Cyanamid) 150 ppm was used as the control. Healthy seedling of yellow melon was selected for use, and test was run three times. For protection test, treatment was carried out on September 17, 1995, and they were inoculated 24 hours later. For the therapeutic test, inoculation was made on September 18, and then they were treated 24 hours later. Examination was made a week later, and results were recorded in 9 grades, and disease index and protection effect were calculated.

cucumber downy mildew [7] = assay: Field therapeutic test against cucumber downy mildew (Example 14); format: in vivo, Pseudoperonospora cubensis; settings: three treatments, examined on June 3
Method: Therapeutic effect (field test).
Field therapeutic test of the compound 1 against cucumber downy mildew was carried out in a farm at a village near Shenyang City.
Concentration of the Compound 1 (20% wettable powder) was set at 100, 200 and 300 ppm. Chlor 1500 ppm was used as the control, and blank control was set separately also. Each treatment was repeated three times. First treatment was made on May 13, second treatment was made on May 20, and third treatment was made on May 27, and protective effect was examined on June 3.

Downy mildew [8] = assay: Indoor comparison with Dimethomorph, test for protection (Example 11); settings: seedling of yellow melon, 2 - 3 leaf stage
Description: as §1

cucumber downy mildew [9] = assay: Indoor protection test against cucumber downy mildew (Example 10); settings: inoculated 24 hours after treatment, examined a week later
Method: as §2

[10] = Pseudoperonospora cubensis, 24 h, read-out: % Inhibition of spore

[Al]#[P] [Aluminium phosphide, aluminium phosphide, reference compound]
Therapeutic effect (%)control (cucumber downy mildew [1]; 1000 ppm): 40.0% | Protective effect/preventive (%)control (cucumber downy mildew [2]; 1000 ppm): 75.0%

N#Cc1c(Cl)c(Cl)c(Cl)c(C#N)c1Cl [Chlorothalonil, reference compound]
Therapeutic effect (%)control (cucumber downy mildew [1]; 1000 ppm): 75.0% | Protective effect/preventive (%)control (cucumber downy mildew [2]; 1000 ppm): 90.0%

COc1ccc(/C(=C\C(=O)N2CCOCC2)c2ccc(F)cc2)cc1OC [Compound 1]
Therapeutic effect (%)control (cucumber downy mildew [1]; 25 ppm): 0.0% | Therapeutic effect (%)control (cucumber downy mildew [1]; 50 ppm): 40.0% | Therapeutic effect (%)control (cucumber downy mildew [1]; 75 ppm): 60.0% | Therapeutic effect (%)control (cucumber downy mildew [1]; 100 ppm): 75.0% | Therapeutic effect (%)control (cucumber downy mildew [1]; 200 ppm): 90.0% | Protective effect/preventive (%)control (cucumber downy mildew [2]; 25 ppm): 40.0% | Protective effect/preventive (%)control (cucumber downy mildew [2]; 50 ppm): 60.0% | Protective effect/preventive (%)control (cucumber downy mildew [2]; 75 ppm): 75.0% | Protective effect/preventive (%)control (cucumber downy mildew [2]; 100 ppm): 90.0% | Protective effect/preventive (%)control (cucumber downy mildew [2]; 200 ppm): 100.0% | Therapeutic effect (%)control (Downy mildew [3]; 100 ppm): 63% | Therapeutic effect Disease index (Downy mildew [3]; 100 ppm): 0.37 | Therapeutic effect (%)control (Downy mildew [3]; 150 ppm): 74% | Therapeutic effect Disease index (Downy mildew [3]; 150 ppm): 0.26 | Disease index (late blight of tomato; 200 ppm): 5.56 | Protective (%)control (late blight of tomato; 200 ppm): 80.9% | Disease index (late blight of tomato; 400 ppm): 2.59 | Protective (%)control (late blight of tomato; 400 ppm): 91.1% | Disease index (late blight of tomato; 600 ppm): 2.22 | Protective (%)control (late blight of tomato; 600 ppm): 94.9% | Disease index (cucumber downy mildew [4]; 200 ppm, April 22): 0 | Protective (%)control (cucumber downy mildew [4]; 200 ppm, April 22): 100% | Disease index (cucumber downy mildew [4]; 200 ppm, April 29): 0 | Protective (%)control (cucumber downy mildew [4]; 200 ppm, April 29): 100% | Disease index (cucumber downy mildew [4]; 200 ppm, May 5): 0.03 | Protective (%)control (cucumber downy mildew [4]; 200 ppm, May 5): 97.0% | Disease index (cucumber downy mildew [4]; 400 ppm, April 22): 0 | Protective (%)control (cucumber downy mildew [4]; 400 ppm, April 22): 100% | Disease index (cucumber downy mildew [4]; 400 ppm, April 29): 0 | Protective (%)control (cucumber downy mildew [4]; 400 ppm, April 29): 100% | Disease index (cucumber downy mildew [4]; 400 ppm, May 5): 0 | Protective (%)control (cucumber downy mildew [4]; 400 ppm, May 5): 100% | Disease index (cucumber downy mildew [4]; 600 ppm, April 22): 0 | Protective (%)control (cucumber downy mildew [4]; 600 ppm, April 22): 100% | Disease index (cucumber downy mildew [4]; 600 ppm, April 29): 0 | Protective (%)control (cucumber downy mildew [4]; 600 ppm, April 29): 100% | Disease index (cucumber downy mildew [4]; 600 ppm, May 5): 0 | Protective (%)control (cucumber downy mildew [4]; 600 ppm, May 5): 100% | % Spore germination ([5]; 25 ppm, 25°C, after 24 hours): 23.1% | Number of spores germinated ([5]; 25 ppm, 25°C, after 24 hours): 198 | Number of ungerminated spores ([5]; 25 ppm, 25°C, after 24 hours): 660 | % Spore germination ([5]; 50 ppm, 25°C, after 24 hours): 4.3% | Number of spores germinated ([5]; 50 ppm, 25°C, after 24 hours): 45 | Number of ungerminated spores ([5]; 50 ppm, 25°C, after 24 hours): 990 | % Spore germination ([5]; 100 ppm, 25°C, after 24 hours): 1.6% | Number of spores germinated ([5]; 100 ppm, 25°C, after 24 hours): 17 | Number of ungerminated spores ([5]; 100 ppm, 25°C, after 24 hours): 1044 | inhibition at 25 ppm [5, 10]: 65.2% | inhibition at 50 ppm [5, 10]: 93.5% | inhibition at 100 ppm [5, 10]: 97.6% | Therapeutic (%)control (cucumber downy mildew [6]; 75 ppm): 78.8% | Therapeutic Disease index (cucumber downy mildew [6]; 75 ppm): 0.11 | Therapeutic (%)control (cucumber downy mildew [6]; 100 ppm): 84.6% | Therapeutic Disease index (cucumber downy mildew [6]; 100 ppm): 0.08 | Therapeutic (%)control (cucumber downy mildew [6]; 150 ppm): 100% | Therapeutic Disease index (cucumber downy mildew [6]; 150 ppm): 0 | Therapeutic (%)control (cucumber downy mildew [6]; 200 ppm): 98.1% | Therapeutic Disease index (cucumber downy mildew [6]; 200 ppm): 0.01 | Therapeutic (%)control (cucumber downy mildew [6]; 250 ppm): 100% | Therapeutic Disease index (cucumber downy mildew [6]; 250 ppm): 0 | Disease index (cucumber downy mildew [7]; 100 ppm): 0.049 | Protective effect (%)control (cucumber downy mildew [7]; 100 ppm): 88.4% | Disease index (cucumber downy mildew [7]; 200 ppm): 0.011 | Protective effect (%)control (cucumber downy mildew [7]; 200 ppm): 97.4% | Disease index (cucumber downy mildew [7]; 300 ppm): 0 | Protective effect (%)control (cucumber downy mildew [7]; 300 ppm): 100% | Protective effect (%)control (Downy mildew [8]; 100 ppm): 93% | Protective effect Disease index (Downy mildew [8]; 100 ppm): 0.07 | Protective effect (%)control (Downy mildew [8]; 150 ppm): 95% | Protective effect Disease index (Downy mildew [8]; 150 ppm): 0.05 | Protection (%)control (cucumber downy mildew [9]; 75 ppm): 92.5% | Protection Disease index (cucumber downy mildew [9]; 75 ppm): 0.03 | Protection (%)control (cucumber downy mildew [9]; 100 ppm): 100% | Protection Disease index (cucumber downy mildew [9]; 100 ppm): 0 | Protection (%)control (cucumber downy mildew [9]; 150 ppm): 100% | Protection Disease index (cucumber downy mildew [9]; 150 ppm): 0 | Protection (%)control (cucumber downy mildew [9]; 200 ppm): 100% | Protection Disease index (cucumber downy mildew [9]; 200 ppm): 0 | Protection (%)control (cucumber downy mildew [9]; 250 ppm): 100% | Protection Disease index (cucumber downy mildew [9]; 250 ppm): 0

COc1ccc(C(=CC(=O)N2CCOCC2)c2ccc(Cl)cc2)cc1OC [Dimethomorph, reference compound]
Therapeutic effect (%)control (Downy mildew [3]; 100 ppm): 2% | Therapeutic effect Disease index (Downy mildew [3]; 100 ppm): 0.98 | Therapeutic effect (%)control (Downy mildew [3]; 150 ppm): 24% | Therapeutic effect Disease index (Downy mildew [3]; 150 ppm): 0.76 | % Spore germination ([5]; 50 ppm, 25°C, after 24 hours): 38.2% | Number of spores germinated ([5]; 50 ppm, 25°C, after 24 hours): 208 | Number of ungerminated spores ([5]; 50 ppm, 25°C, after 24 hours): 336 | inhibition at 50 ppm ([5]; Pseudoperonospora cubensis, 50 ppm, 25°C, after 24 hours, read-out: % Inhibition of spore): 42.5% | Therapeutic (%)control (cucumber downy mildew [6]; 150 ppm): 63.5% | Therapeutic Disease index (cucumber downy mildew [6]; 150 ppm): 0.19 | Protective effect (%)control (Downy mildew [8]; 100 ppm): 61% | Protective effect Disease index (Downy mildew [8]; 100 ppm): 0.39 | Protective effect (%)control (Downy mildew [8]; 150 ppm): 79% | Protective effect Disease index (Downy mildew [8]; 150 ppm): 0.21 | Protection (%)control (cucumber downy mildew [9]; 150 ppm): 100% | Protection Disease index (cucumber downy mildew [9]; 150 ppm): 0

COCC(=O)N(c1c(C)cccc1C)C(C)C(=O)OC (stereo not drawn) [metalaxyl, reference compound]
Therapeutic effect (%)control (cucumber downy mildew [1]; 500 ppm): 40.0% | Protective effect/preventive (%)control (cucumber downy mildew [2]; 500 ppm): 60.0%
